According to patent US12559506B2, “Indazole based compounds and associated methods of use” (Arvinas Operations, Inc., priority 2021, dated 2026):
Read-outs that look alike come from different tables or passages of the source.

Assays:
wildtype LRRK2 = target: T1, wildtype LRRK2 (Homo sapiens, UniProt Q5S007); test: LRRK2 degradation assay, HiBit-tagged wildtype LRRK2 expressed from plasmid in HEK293 cells (Nano-Glo Dual-Luciferase); type: cell-based; settings: 24 hours; for Dmax: read-out: **WT Dmax (%); for DC50: read-out: *WT DC50
T1 construct: expressed in transfected cells; host or cells: HEK293 (ATCC CRL-1573), transient transfection, mammalian expression vector with ubiquitin promoter
Outline: (§1)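 Degradation read as Nano-Glo HiBiT signal over firefly luciferase (cell number/viability) after 24 h compound exposure of transiently transfected HEK293 expressing C-terminally HiBiT-tagged wildtype or G2019S LRRK2. Data as % DMSO; DC50/Dmax fitted per plate, triplicate plates repeated twice.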

G2019S LRRK2 = target: T2, G2019S LRRK2 (Homo sapiens, UniProt Q5S007, G2019S); test: LRRK2 degradation assay, HiBit-tagged G2019S LRRK2 expressed from plasmid in HEK293 cells (Nano-Glo Dual-Luciferase); type: cell-based; settings: 24 hours
T2 construct: expressed in transfected cells; host or cells: HEK293 (ATCC CRL-1573), transient transfection, mammalian expression vector with ubiquitin promoter
Outline: as §1

[1] = HiBit-tagged wildtype LRRK2 in HEK293 cells
[2] = HiBit-tagged G2019S LRRK2 in HEK293 cells
[3] = HiBit-tagged wildtype LRRK2, HEK293 cells
[4] = HiBit-tagged G2019S LRRK2, HEK293 cells

T1 sequence (Q5S007 whole entry): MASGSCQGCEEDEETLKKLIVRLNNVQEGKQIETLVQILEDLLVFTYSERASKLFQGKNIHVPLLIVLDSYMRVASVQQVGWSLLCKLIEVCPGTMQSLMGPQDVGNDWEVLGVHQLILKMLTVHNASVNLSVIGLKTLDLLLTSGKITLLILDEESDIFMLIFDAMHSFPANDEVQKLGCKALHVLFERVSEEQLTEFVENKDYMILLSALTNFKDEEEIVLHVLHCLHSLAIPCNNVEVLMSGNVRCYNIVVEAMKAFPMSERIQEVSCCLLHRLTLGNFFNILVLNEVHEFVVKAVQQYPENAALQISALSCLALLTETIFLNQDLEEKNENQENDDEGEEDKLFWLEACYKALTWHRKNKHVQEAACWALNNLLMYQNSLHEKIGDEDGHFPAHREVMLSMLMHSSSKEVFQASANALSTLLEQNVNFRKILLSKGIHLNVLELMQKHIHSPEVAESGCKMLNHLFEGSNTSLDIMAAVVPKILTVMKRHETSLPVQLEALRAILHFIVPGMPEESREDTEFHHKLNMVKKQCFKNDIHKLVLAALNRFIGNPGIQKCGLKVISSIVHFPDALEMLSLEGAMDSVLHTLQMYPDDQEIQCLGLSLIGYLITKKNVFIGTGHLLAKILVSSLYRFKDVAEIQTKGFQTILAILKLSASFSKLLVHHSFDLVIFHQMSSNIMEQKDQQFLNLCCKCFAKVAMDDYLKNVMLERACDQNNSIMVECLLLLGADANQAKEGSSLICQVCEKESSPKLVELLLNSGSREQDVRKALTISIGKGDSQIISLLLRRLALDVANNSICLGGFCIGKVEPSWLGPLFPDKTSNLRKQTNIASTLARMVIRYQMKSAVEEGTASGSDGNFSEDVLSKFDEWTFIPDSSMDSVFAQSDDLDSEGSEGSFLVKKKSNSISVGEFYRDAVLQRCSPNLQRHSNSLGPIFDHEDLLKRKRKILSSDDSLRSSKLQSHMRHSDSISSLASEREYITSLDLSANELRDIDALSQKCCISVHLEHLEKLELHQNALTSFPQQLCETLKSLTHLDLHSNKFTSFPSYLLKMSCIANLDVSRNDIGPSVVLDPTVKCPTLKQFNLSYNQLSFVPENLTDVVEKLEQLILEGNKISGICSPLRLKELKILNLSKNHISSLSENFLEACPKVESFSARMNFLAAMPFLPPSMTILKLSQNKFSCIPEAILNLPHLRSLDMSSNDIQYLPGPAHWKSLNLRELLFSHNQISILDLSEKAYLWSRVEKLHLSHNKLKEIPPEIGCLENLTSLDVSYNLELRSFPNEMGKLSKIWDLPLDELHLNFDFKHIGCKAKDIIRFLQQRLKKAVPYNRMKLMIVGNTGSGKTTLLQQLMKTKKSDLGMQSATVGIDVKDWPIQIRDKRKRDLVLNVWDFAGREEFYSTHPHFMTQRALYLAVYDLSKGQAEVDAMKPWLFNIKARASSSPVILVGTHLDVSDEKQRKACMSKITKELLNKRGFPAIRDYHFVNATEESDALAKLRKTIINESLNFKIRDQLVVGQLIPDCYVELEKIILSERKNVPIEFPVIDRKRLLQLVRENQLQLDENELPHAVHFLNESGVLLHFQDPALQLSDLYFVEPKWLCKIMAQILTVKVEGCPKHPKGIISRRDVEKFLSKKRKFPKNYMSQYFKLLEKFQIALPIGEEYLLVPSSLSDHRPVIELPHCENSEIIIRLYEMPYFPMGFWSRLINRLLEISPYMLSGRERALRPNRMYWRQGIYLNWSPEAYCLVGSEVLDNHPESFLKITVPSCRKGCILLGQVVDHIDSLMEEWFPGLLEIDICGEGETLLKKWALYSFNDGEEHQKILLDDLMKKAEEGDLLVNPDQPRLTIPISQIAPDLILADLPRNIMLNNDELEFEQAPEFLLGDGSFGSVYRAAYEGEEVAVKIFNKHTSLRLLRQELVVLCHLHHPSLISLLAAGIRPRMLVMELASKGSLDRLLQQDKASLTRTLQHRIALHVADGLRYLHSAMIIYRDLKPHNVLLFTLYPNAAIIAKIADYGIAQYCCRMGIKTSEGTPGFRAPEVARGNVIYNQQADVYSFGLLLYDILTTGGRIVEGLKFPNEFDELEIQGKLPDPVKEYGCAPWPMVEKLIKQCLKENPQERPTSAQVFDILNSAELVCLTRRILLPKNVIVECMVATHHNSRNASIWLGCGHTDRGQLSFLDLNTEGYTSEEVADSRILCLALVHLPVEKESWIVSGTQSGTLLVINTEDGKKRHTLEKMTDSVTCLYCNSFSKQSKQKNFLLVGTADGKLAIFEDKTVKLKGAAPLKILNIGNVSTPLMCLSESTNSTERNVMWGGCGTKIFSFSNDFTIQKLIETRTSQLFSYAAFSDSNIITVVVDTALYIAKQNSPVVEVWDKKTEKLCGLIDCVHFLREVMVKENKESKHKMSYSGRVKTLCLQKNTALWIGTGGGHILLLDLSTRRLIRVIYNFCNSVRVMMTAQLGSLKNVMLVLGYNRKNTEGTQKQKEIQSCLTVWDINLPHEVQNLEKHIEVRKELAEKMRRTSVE
T2 sequence (Q5S007 whole entry G2019S): as the sequence (Q5S007 whole entry) above, with G2019S counted along it

Structure (SMILES)	Dmax (wildtype LRRK2; [1]) [%]	DC50 (wildtype LRRK2; [1]) [µM]	DC50 (G2019S LRRK2; [2]) [µM]	Dmax (G2019S LRRK2; [2]) [%]	Dmax (wildtype LRRK2; [3]) [%]	DC50 (wildtype LRRK2; [3]) [µM]	DC50 (G2019S LRRK2; [4]) [µM]	Dmax (G2019S LRRK2; [4]) [%]
CC1(Oc2ccc3[nH]nc(-c4ccnc(N5CCC(CC6CCN(C(=O)C7CCN(c8ccc9c(c8)C(=O)N(C8CCC(=O)NC8=O)C9=O)CC7)CC6)CC5)c4)c3c2)CC1 (centres unmarked) [Compound 93, 2-(2,6-dioxopiperidin-3-yl)-5-(4-{4-[(1-{4-[5-(1-methylcyclopropoxy)-1H-indazol-3-yl]pyridin-2-yl}piperidin-4-yl)methyl]piperidine-1-carbonyl}piperidin-1-yl)-2,3-dihydro-1H-isoindole-1,3-dione]	50 to 70	0.01 to 0.05	0.01 to 0.05	< 50				
CC1(Oc2ccc3[nH]nc(-c4ccnc(N5CCC56CN(CC5CCN(CC7CCN(c8ccc9c(c8)C(=O)N(C8CCC(=O)NC8=O)C9=O)CC7)CC5)C6)c4)c3c2)CC1 (centres unmarked) [Compound 162, 2-(2,6-dioxo-3-piperidyl)-5-[4-[[4-[[1-[4-[5-(1-methylcyclopropoxy)-1H-indazol-3-yl]-2-pyridyl]-1,6-diazaspiro[3.3]heptan-6-yl]methyl]-1-piperidyl]methyl]-1-piperidyl]isoindoline-1,3-dione]					< 50	0.05 to 0.1	≥ 0.1	< 50
CC1(Oc2ccc3[nH]nc(-c4cc(N5CCC(CN6CC[C@H](OC7CCN(c8ccc9c(c8)C(=O)N(C8CCC(=O)NC8=O)C9=O)CC7)C6)CC5)ncn4)c3c2)CC1 (stereo partly drawn) [Compound 118, 2-(2,6-dioxo-3-piperidyl)-5-[4-[(3S)-1-[[1-[6-[5-(1-methylcyclopropoxy)-1H-indazol-3-yl]pyrimidin-4-yl]-4-piperidyl]methyl]pyrrolidin-3-yl]oxy-1-piperidyl]isoindoline-1,3-dione]	50 to 70	0.01 to 0.05	0.01 to 0.05	< 50				
CC1(Oc2ccc3[nH]nc(-c4ccnc(N5CCC(CN6CCC(F)(CN7CCN(c8ccc9c(c8)C(=O)N(C8CCC(=O)NC8=O)C9=O)CC7)CC6)CC5)c4)c3c2)CC1 (centres unmarked) [Compound 82, 2-(2,6-dioxo-3-piperidyl)-5-[4-[[4-fluoro-1-[[1-[4-[5-(1-methylcyclopropoxy)-1H-indazol-3-yl]-2-pyridyl]-4-piperidyl]methyl]-4-piperidyl]methyl]piperazin-1-yl]isoindoline-1,3-dione]	50 to 70	0.01 to 0.05	0.01 to 0.05	50 to 70				
CC1(Oc2ccc3[nH]nc(-c4ccnc(N5CCC(CN6CCN(C(=O)C7CCN(c8ccc9c(c8)C(=O)N(C8CCC(=O)NC8=O)C9=O)CC7)CC6)CC5)c4)c3c2)CC1 (centres unmarked) [Compound 95, 2-(2,6-dioxopiperidin-3-yl)-5-(4-{4-[(1-{4-[5-(1-methylcyclopropoxy)-1H-indazol-3-yl]pyridin-2-yl}piperidin-4-yl)methyl]piperazine-1-carbonyl}piperidin-1-yl)-2,3-dihydro-1H-isoindole-1,3-dione]	50 to 70	< 0.01	< 0.01	50 to 70				
CC1(Oc2ccc3[nH]nc(-c4ccnc(N5CC(CCC6CCN(CC7CCN(c8ccc9c(c8)C(=O)N(C8CCC(=O)NC8=O)C9=O)CC7)CC6)C5)c4)c3c2)CC1 (centres unmarked) [Compound 165, 2-(2,6-dioxo-3-piperidyl)-5-[4-[[4-[2-[1-[4-[5-(1-methylcyclopropoxy)-1H-indazol-3-yl]-2-pyridyl]azetidin-3-yl]ethyl]-1-piperidyl]methyl]-1-piperidyl]isoindoline-1,3-dione]					< 50	< 0.01	< 0.01	50 to 70
CC1(Oc2ccc3[nH]nc(-c4cc(N5CCO[C@@H](CCN6CCN(CC7CCN(c8ccc9c(c8)C(=O)N(C8CCC(=O)NC8=O)C9=O)CC7)CC6)C5)ncn4)c3c2)CC1 (single isomer, unassigned) [Compound 154]					50 to 70	< 0.01	< 0.01	50 to 70
CC1(Oc2ccc3[nH]nc(-c4cc(N5CCO[C@H](CCN6CCN(CC7CCN(c8ccc9c(c8)C(=O)N(C8CCC(=O)NC8=O)C9=O)CC7)CC6)C5)ncn4)c3c2)CC1 (stereo partly drawn) [Compound 155, 2-(2,6-dioxopiperidin-3-yl)-5-{4-[(4-{2-[(2R)-4-{6-[5-(1-methylcyclopropoxy)-1H-indazol-3-yl]pyrimidin-4-yl}morpholin-2-yl]ethyl}piperazin-1-yl)methyl]piperidin-1-yl}-2,3-dihydro-1H-isoindole-1,3-dione]					50 to 70	< 0.01	< 0.01	50 to 70
CC1(Oc2ccc3[nH]nc(-c4cc(N5CC(CN6CCN(CC7CCN(c8ccc9c(c8)C(=O)N(C8CCC(=O)NC8=O)C9=O)CC7)CC6)C5)ncn4)c3c2)CC1 (centres unmarked) [Compound 129, 2-(2,6-dioxo-3-piperidyl)-5-[4-[[4-[[1-[6-[5-(1-methylcyclopropoxy)-1H-indazol-3-yl]pyrimidin-4-yl]azetidin-3-yl]methyl]piperazin-1-yl]methyl]-1-piperidyl]isoindoline-1,3-dione]	≥ 70	< 0.01	< 0.01	≥ 70				
C[C@H]1CN(c2cc(-c3n[nH]c4cc(F)c(OC5(C)CC5)cc34)ncn2)CCN1CC1(F)CCN(CC2CCN(c3ccc4c(c3)C(=O)N(C3CCC(=O)NC3=O)C4=O)CC2)CC1 (stereo partly drawn) [Compound 106, 2-(2,6-dioxo-3-piperidyl)-5-[4-[[4-fluoro-4-[[(2S)-4-[6-[6-fluoro-5-(1-methylcyclopropoxy)-1H-indazol-3-yl]pyrimidin-4-yl]-2-methyl-piperazin-1-yl]methyl]-1-piperidyl]methyl]-1-piperidyl]isoindoline-1,3-dione]	< 50	< 0.01	< 0.01	< 50				

The remaining lines, values ahead:

Dmax (wildtype LRRK2; [1]) [%]	DC50 (wildtype LRRK2; [1]) [µM]	DC50 (G2019S LRRK2; [2]) [µM]	Dmax (G2019S LRRK2; [2]) [%]	Dmax (wildtype LRRK2; [3]) [%]	DC50 (wildtype LRRK2; [3]) [µM]	DC50 (G2019S LRRK2; [4]) [µM]	Dmax (G2019S LRRK2; [4]) [%]	Structure (SMILES)
≥ 70	< 0.01	< 0.01	≥ 70					CC1(Oc2ccc3n[nH]c(-c4cc(N5CCC(CN6CCN(CC7CCN(c8cccc9c8CN(C8CCC(=O)NC8=O)C9=O)CC7)CC6)CC5)ncn4)c3c2)CC1 (centres unmarked) [Compound 147, 3-[4-[4-[[4-[[1-[6-[5-(1-methylcyclopropoxy)-2H-indazol-3-yl]pyrimidin-4-yl]-4-piperidyl]methyl]piperazin-1-yl]methyl]-1-piperidyl]-1-oxo-isoindolin-2-yl]piperidine-2,6-dione]
50 to 70	< 0.01	< 0.01	50 to 70					CC1(Oc2ccc3[nH]nc(-c4cc(N5CCO[C@H](CN6CCC(OC7CCN(c8ccc9c(c8)C(=O)N(C8CCC(=O)NC8=O)C9=O)CC7)CC6)C5)ncn4)c3c2)CC1 (stereo partly drawn) [Compound 150, 2-(2,6-dioxopiperidin-3-yl)-5-{4-[(1-{[(2R)-4-{6-[5-(1-methylcyclopropoxy)-1H-indazol-3-yl]pyrimidin-4-yl}morpholin-2-yl]methyl}piperidin-4-yl)oxy]piperidin-1-yl}-2,3-dihydro-1H-isoindole-1,3-dione]
50 to 70	< 0.01	< 0.01	50 to 70					CC1(Oc2ccc3[nH]nc(-c4cc(N5CCC(CN6CC(CN7CCN(c8ccc9c(c8)C(=O)N(C8CCC(=O)NC8=O)C9=O)CC7)C6)CC5)ncn4)c3c2)CC1 (centres unmarked) [Compound 125, 2-(2,6-dioxo-3-piperidyl)-5-[4-[[11-[[1-[6-[5-(1-methylcyclopropoxy)-1H-indazol-3-yl]pyrimidin-4-yl]-4-piperidyl]methyl]azetidin-3-yl]methyl]piperazin-1-yl]isoindoline-1,3-dione]
< 50	< 0.01	< 0.01	< 50					C[C@H]1CN(c2cc(-c3n[nH]c4ccc(OC5(C)CC5)cc34)ncn2)CCN1CC1CCN(CC2CCN(c3cc4c(cc3F)C(=O)N(C3CCC(=O)NC3=O)C4=O)CC2)CC1 (stereo partly drawn) [Compound 73, 2-(2,6-dioxo-3-piperidyl)-5-fluoro-6-[4-[[4-[[(2S)-2-methyl-4-[6-[5-(1-methylcyclopropoxy)-2H-indazol-3-yl]pyrimidin-4-yl]piperazin-1-yl]methyl]-1-piperidyl]methyl]-1-piperidyl]isoindoline-1,3-dione]
≥ 70	< 0.01	< 0.01	≥ 70					CC1(Oc2ccc3[nH]nc(-c4cc(N5CCN(CCN6CCN(CC7CCN(c8ccc9c(c8)C(=O)N(C8CCC(=O)NC8=O)C9=O)CC7)CC6)CC5)ncn4)c3c2)CC1 (centres unmarked) [Compound 54, 2-(2,6-dioxopiperidin-3-yl)-5-[4-({4-[2-(4-{6-[5-(1-methylcyclopropoxy)-1H-indazol-3-yl]pyrimidin-4-yl}piperazin-1-yl)ethyl]piperazin-1-yl}methyl)piperidin-1-yl]-2,3-dihydro-1H-isoindole-1,3-dione]
50 to 70	< 0.01	< 0.01	< 50					C[C@H]1CN(c2cc(-c3n[nH]c4ccc(OC5(C)CC5)cc34)ncn2)CCN1C[C@@H]1CCN(CC2CCN(c3ccc4c(c3)C(=O)N(C3CCC(=O)NC3=O)C4=O)CC2)C1 (stereo partly drawn) [Compound 113, 2-(2,6-dioxopiperidin-3-yl)-5-(4-{[(3R)-3-{[(2S)-2-methyl-4-{6-[5-(1-methylcyclopropoxy)-1H-indazol-3-yl]pyrimidin-4-yl}piperazin-1-yl]methyl}pyrrolidin-1-yl]methyl}piperidin-1-yl)-2,3-dihydro-1H-isoindole-1,3-dione]
≥ 70	< 0.01	< 0.01	≥ 70					CC1(Oc2ccc3[nH]nc(-c4cc(N5CCC(CN=S6(=O)CCN(CC7CCN(c8ccc9c(c8)C(=O)N(C8CCC(=O)NC8=O)C9=O)CC7)CC6)CC5)ncn4)c3c2)CC1 (centres unmarked) [Compound 63, 2-(2,6-dioxo-3-piperidyl)-5-[4-[[1-[[1-[6-[5-(1-methylcyclopropoxy)-1H-indazol-3-yl]pyrimidin-4-yl]-4-piperidyl]methylimino]-1-oxo-1,4-thiazinan-4-yl]methyl]-1-piperidyl]isoindoline-1,3-dione]
